# Experimental data reported in PubChem BioAssay AID1963982 (Molecular Pharmacology Branch, DTP, NCI, 2024).
# System: 313798-341-R-J2-PDC spheroids, viability
# Test: Anticancer human tumor 313798-341-R-J2-PDC patient-derived cervical squamous cell carcinoma cell line growth inhibition [PI3K]
# Conditions: spheroids with HUVEC and MSC; for IC50: curve of first compound; for viability, T/C: stronger effect = lower value
# Procedure, shortened: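 Stroma-containing spheroids: tumor line, pooled-donor HUVEC, hMSC. Treatments: targeted agents with PI3K inhibitors. Dosing: clinically relevant, half-log spacing, 10 microM ceiling without known Cmax. Read-out: cell viability.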
# [1] = second compound 0.0316 µM, first compound 0.0316 µM
# [2] = second compound 0.0316 µM, first compound 0.1 µM
# [3] = second compound 0.1 µM, first compound 0.0316 µM
# [4] = second compound 0.1 µM, first compound 0.1 µM
# [5] = second compound 0.316 µM, first compound 0.0316 µM
# [6] = second compound 0.316 µM, first compound 0.1 µM
# [7] = second compound 1 µM, first compound 0.0316 µM
# [8] = second compound 1 µM, first compound 0.1 µM
# [9] = second compound 3.16 µM, first compound 0.0316 µM
# [10] = second compound 3.16 µM, first compound 0.1 µM
# [11] = second compound 10 µM, first compound 0.0316 µM
# [12] = second compound 10 µM, first compound 0.1 µM
# 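Note: spheroids exposed to compounds for seven days.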
# 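Throughout, for viability, T/C: 100% = DMSO vehicle control viability.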
structure (smiles),measurement,setting,value
CC(=O)c1c(C)c2cnc(Nc3ccc(N4CCNCC4)cn3)nc2n(C2CCCC2)c1=O + CC(Nc1ncnc2nc[nH]c12)c1cc2cccc(Cl)c2c(=O)n1-c1ccccc1,IC50,second compound 0.0316 µM,> 0.1 µM
same,IC50,second compound 0.1 µM,> 0.1 µM
same,IC50,second compound 0.316 µM,> 0.1 µM
same,IC50,second compound 1 µM,> 0.1 µM
same,IC50,second compound 3.16 µM,> 0.1 µM
same,IC50,second compound 10 µM,> 0.1 µM
same,"viability, T/C","second compound 0.0316 µM, first compound 0.000316 µM",100%
same,"viability, T/C","second compound 0.0316 µM, first compound 0.001 µM",112%
same,"viability, T/C","second compound 0.0316 µM, first compound 0.00316 µM",98.8%
same,"viability, T/C","second compound 0.0316 µM, first compound 0.01 µM",102%
same,"viability, T/C",[1],101%
same,"viability, T/C",[2],106%
same,"viability, T/C","second compound 0.1 µM, first compound 0.000316 µM",104%
same,"viability, T/C","second compound 0.1 µM, first compound 0.001 µM",104%
same,"viability, T/C","second compound 0.1 µM, first compound 0.00316 µM",108%
same,"viability, T/C","second compound 0.1 µM, first compound 0.01 µM",109%
same,"viability, T/C",[3],103%
same,"viability, T/C",[4],97.4%
same,"viability, T/C","second compound 0.316 µM, first compound 0.000316 µM",99.6%
same,"viability, T/C","second compound 0.316 µM, first compound 0.001 µM",105%
same,"viability, T/C","second compound 0.316 µM, first compound 0.00316 µM",91.1%
same,"viability, T/C","second compound 0.316 µM, first compound 0.01 µM",110%
same,"viability, T/C",[5],95.3%
same,"viability, T/C",[6],104%
same,"viability, T/C","second compound 1 µM, first compound 0.000316 µM",108%
same,"viability, T/C","second compound 1 µM, first compound 0.001 µM",107%
same,"viability, T/C","second compound 1 µM, first compound 0.00316 µM",94.1%
same,"viability, T/C","second compound 1 µM, first compound 0.01 µM",106%
same,"viability, T/C",[7],99.2%
same,"viability, T/C",[8],106%
same,"viability, T/C","second compound 3.16 µM, first compound 0.000316 µM",100%
same,"viability, T/C","second compound 3.16 µM, first compound 0.001 µM",108%
same,"viability, T/C","second compound 3.16 µM, first compound 0.00316 µM",104%
same,"viability, T/C","second compound 3.16 µM, first compound 0.01 µM",97%
same,"viability, T/C",[9],100%
same,"viability, T/C",[10],103%
same,"viability, T/C","second compound 10 µM, first compound 0.000316 µM",93%
same,"viability, T/C","second compound 10 µM, first compound 0.001 µM",94.8%
same,"viability, T/C","second compound 10 µM, first compound 0.00316 µM",92.6%
same,"viability, T/C","second compound 10 µM, first compound 0.01 µM",98.2%
same,"viability, T/C",[11],92.3%
same,"viability, T/C",[12],87.5%
CCCS(=O)(=O)Nc1ccc(F)c(C(=O)c2c[nH]c3ncc(-c4ccc(Cl)cc4)cc23)c1F + CC(Nc1ncnc2nc[nH]c12)c1cc2cccc(Cl)c2c(=O)n1-c1ccccc1,IC50,second compound 0.0316 µM,8.61 µM
same,IC50,second compound 0.1 µM,6.79 µM
same,IC50,second compound 0.316 µM,6.52 µM
same,IC50,second compound 1 µM,7.03 µM
same,IC50,second compound 3.16 µM,6.39 µM
same,IC50,second compound 10 µM,4.69 µM
same,"viability, T/C",[1],103%
same,"viability, T/C",[2],103%
same,"viability, T/C","second compound 0.0316 µM, first compound 0.316 µM",108%
same,"viability, T/C","second compound 0.0316 µM, first compound 1 µM",105%
same,"viability, T/C","second compound 0.0316 µM, first compound 3.16 µM",96.5%
same,"viability, T/C","second compound 0.0316 µM, first compound 10 µM",43%
same,"viability, T/C",[3],112%
same,"viability, T/C",[4],103%
same,"viability, T/C","second compound 0.1 µM, first compound 0.316 µM",90.3%
same,"viability, T/C","second compound 0.1 µM, first compound 1 µM",90.9%
same,"viability, T/C","second compound 0.1 µM, first compound 3.16 µM",92.8%
same,"viability, T/C","second compound 0.1 µM, first compound 10 µM",28.1%
same,"viability, T/C",[5],92.6%
same,"viability, T/C",[6],96.5%
same,"viability, T/C","second compound 0.316 µM, first compound 0.316 µM",101%
same,"viability, T/C","second compound 0.316 µM, first compound 1 µM",104%
same,"viability, T/C","second compound 0.316 µM, first compound 3.16 µM",93.9%
same,"viability, T/C","second compound 0.316 µM, first compound 10 µM",23.8%
same,"viability, T/C",[7],112%
same,"viability, T/C",[8],99.6%
same,"viability, T/C","second compound 1 µM, first compound 0.316 µM",98.8%
same,"viability, T/C","second compound 1 µM, first compound 1 µM",116%
same,"viability, T/C","second compound 1 µM, first compound 3.16 µM",98.8%
same,"viability, T/C","second compound 1 µM, first compound 10 µM",27.8%
same,"viability, T/C",[9],107%
same,"viability, T/C",[10],101%
same,"viability, T/C","second compound 3.16 µM, first compound 0.316 µM",118%
same,"viability, T/C","second compound 3.16 µM, first compound 1 µM",106%
same,"viability, T/C","second compound 3.16 µM, first compound 3.16 µM",90.1%
same,"viability, T/C","second compound 3.16 µM, first compound 10 µM",24.5%
same,"viability, T/C",[11],95%
same,"viability, T/C",[12],101%
same,"viability, T/C","second compound 10 µM, first compound 0.316 µM",91.2%
same,"viability, T/C","second compound 10 µM, first compound 1 µM",83.8%
same,"viability, T/C","second compound 10 µM, first compound 3.16 µM",69.2%
same,"viability, T/C","second compound 10 µM, first compound 10 µM",16.6%
